Source: ChEMBL document CHEMBL6182930, “Discovery of TBK1Molecular Glue Degraders as a Potential Strategy for the Treatment of Autosomal Dominant Polycystic Kidney Disease (ADPKD)” (J Med Chem, 2025)
Calls of active or inactive are those of the source. The calls are words filed in the database; no cut-off is given here.

Legend:
[1] = biological target: T1, E3 ubiquitin-protein ligase RNF126/Serine/threonine-protein kinase TBK1 (Homo sapiens, UniProt Q9UHD2+Q9BV68); assay: Molecular glue activity at RNF126/TBK1 in human A549 cells assessed as induction of TBK1 degradation at 1 uM incubated for 16 hrs by Western blot analysis; type: cell-based
[2] = biological target: T1, E3 ubiquitin-protein ligase RNF126/Serine/threonine-protein kinase TBK1; assay: Molecular glue activity at RNF126/TBK1 in HEK293T cells assessed as induction of TBK1 degradation at 1 uM incubated for 16 hrs by Western blot analysis; type: cell-based
[3] = biological target: Protein cereblon/Serine/threonine-protein kinase TBK1 (Homo sapiens) (UniProt Q9UHD2+Q96SW2); assay: PROTAC activity at CRBN/TBK1 in human A549 cells assessed as induction of TBK1 degradation at 1 to 10 uM incubated for 16 hrs by Western blot analysis; type: cell-based; conditions: dose 1-10 µM
[4] = biological target: T2, Serine/threonine-protein kinase TBK1 (Homo sapiens, UniProt Q9UHD2); assay: Inhibition of TBK1-dependent SEAP reporter gene expression in LPS-stimulated human THP1-Blue ISG cells incubated for 24 hrs by QUANTI-Blue reagent based analysis; type: cell-based
T2 sequence (Q9UHD2 whole entry): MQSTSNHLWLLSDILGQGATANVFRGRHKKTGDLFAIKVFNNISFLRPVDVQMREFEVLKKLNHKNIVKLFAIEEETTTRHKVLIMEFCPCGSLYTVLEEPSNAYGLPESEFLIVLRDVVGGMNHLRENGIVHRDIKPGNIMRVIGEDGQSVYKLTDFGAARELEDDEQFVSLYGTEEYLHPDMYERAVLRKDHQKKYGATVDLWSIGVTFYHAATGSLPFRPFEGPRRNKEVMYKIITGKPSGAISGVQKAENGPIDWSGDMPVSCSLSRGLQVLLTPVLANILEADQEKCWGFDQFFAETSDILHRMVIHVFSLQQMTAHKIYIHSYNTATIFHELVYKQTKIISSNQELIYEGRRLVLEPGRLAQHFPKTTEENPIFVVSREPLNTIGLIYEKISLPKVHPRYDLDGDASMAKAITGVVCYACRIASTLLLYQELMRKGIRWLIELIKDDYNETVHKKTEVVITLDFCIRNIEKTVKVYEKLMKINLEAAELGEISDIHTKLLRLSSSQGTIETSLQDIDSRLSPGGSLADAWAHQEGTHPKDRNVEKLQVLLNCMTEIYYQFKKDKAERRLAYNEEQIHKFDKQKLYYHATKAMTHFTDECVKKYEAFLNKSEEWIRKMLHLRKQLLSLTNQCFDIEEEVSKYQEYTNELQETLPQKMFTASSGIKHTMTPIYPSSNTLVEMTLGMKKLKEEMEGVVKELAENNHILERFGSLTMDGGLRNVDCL

MDCK = assay: Inhibition of cystogenesis in forskolin-stimulated MDCK cells assessed as reduction in cyst growth at 100 nM administrated for 8 days starting from day 4 to day 12 by imaging analysis; type: functional, cell-based; conditions: Canis lupus familiaris, time 8.0 day

T1 sequence (Q9BV68 2-311 partner limits assumed, one chain of several): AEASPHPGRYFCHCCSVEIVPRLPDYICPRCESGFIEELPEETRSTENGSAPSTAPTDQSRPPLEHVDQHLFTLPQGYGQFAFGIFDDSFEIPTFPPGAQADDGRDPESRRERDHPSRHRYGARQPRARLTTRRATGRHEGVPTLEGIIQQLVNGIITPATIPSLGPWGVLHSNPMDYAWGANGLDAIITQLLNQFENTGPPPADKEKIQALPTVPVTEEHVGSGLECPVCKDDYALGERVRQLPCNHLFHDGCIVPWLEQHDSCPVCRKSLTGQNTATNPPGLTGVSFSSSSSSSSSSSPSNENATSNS
Protein cereblon/Serine/threonine-protein kinase TBK1 (Homo sapiens), sequence (Q96SW2 whole entry, looked up, one chain of several): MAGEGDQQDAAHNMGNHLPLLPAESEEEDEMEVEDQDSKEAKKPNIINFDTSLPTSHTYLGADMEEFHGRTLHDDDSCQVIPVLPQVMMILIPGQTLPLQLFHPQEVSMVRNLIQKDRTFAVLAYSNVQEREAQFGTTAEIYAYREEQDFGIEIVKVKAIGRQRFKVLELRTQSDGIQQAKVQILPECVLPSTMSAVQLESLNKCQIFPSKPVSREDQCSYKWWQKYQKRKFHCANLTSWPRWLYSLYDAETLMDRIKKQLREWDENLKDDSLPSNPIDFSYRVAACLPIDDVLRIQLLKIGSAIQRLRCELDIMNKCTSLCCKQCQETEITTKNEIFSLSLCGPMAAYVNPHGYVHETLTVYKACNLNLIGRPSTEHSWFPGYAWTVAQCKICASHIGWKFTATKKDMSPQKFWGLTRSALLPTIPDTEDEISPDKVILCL

Row | Compound | Activity [3] | other results
1 | COc1ccc(C(=O)CCC(=O)N2CCN(CC3CCN(Cc4cccc(Nc5ncc6ccn(CCCNC(=O)C7CCC7)c6n5)c4)CC3)CC2)cc1 | – | Activity [1]: inactive; Activity [2]: inactive
2 | O=C1CCC(N2C(=O)c3cccc(NCCCCCCCCCC(=O)N4CCN(Cc5cccc(Nc6ncc7ccn(CCCNC(=O)C8CCC8)c7n6)c5)CC4)c3C2=O)C(=O)N1 (stereo unspecified) | inactive | –
3 | Cc1ncsc1-c1ccc(CNC(=O)[C@@H]2C[C@@H](O)CN2C(=O)[C@H](NC(=O)CCC(=O)N2CCN(Cc3cccc(Nc4ncc5ccn(CCCNC(=O)C6CCC6)c5n4)c3)CC2)C(C)(C)C)cc1 | Active; Compound Exhibited Only Weak Degradation Compared To Control 3I | –
4 | O=C1CCC(N2C(=O)c3cccc(NCCCCCCCC(=O)N4CCN(Cc5cccc(Nc6ncc7ccn(CCCNC(=O)C8CCC8)c7n6)c5)CC4)c3C2=O)C(=O)N1 (stereo unspecified) | inactive | –
5 | Cc1ncsc1-c1ccc(CNC(=O)[C@@H]2C[C@@H](O)CN2C(=O)[C@H](NC(=O)CCCCC(=O)N2CCN(Cc3cccc(Nc4ncc5ccn(CCCNC(=O)C6CCC6)c5n4)c3)CC2)C(C)(C)C)cc1 | inactive | –
6 | O=C1CCC(N2C(=O)c3cccc(NCCCC(=O)N4CCN(Cc5cccc(Nc6ncc7ccn(CCCNC(=O)C8CCC8)c7n6)c5)CC4)c3C2=O)C(=O)N1 (stereo unspecified) | Active; Compound Exhibited Only Weak Degradation Compared To Control 3I | –
7 | COc1ccc(C(=O)/C=C/C(=O)N2CCN(C)CC2)cc1 | – | Activity [1]: inactive; Activity [2]: inactive
8 | O=C1CCC(N2C(=O)c3cccc(NCCOCCOCCC(=O)N4CCN(Cc5cccc(Nc6ncc7ccn(CCCNC(=O)C8CCC8)c7n6)c5)CC4)c3C2=O)C(=O)N1 (stereo unspecified) | inactive | –
9 | Cc1ncsc1-c1ccc(CNC(=O)[C@@H]2C[C@@H](O)CN2C(=O)[C@@H](NC(=O)COCCCOCCCCOCCCOc2ccc(Nc3ncc(Br)c(NCCCN(C)C(=O)C4CCC4)n3)cc2)C(C)(C)C)cc1 | – | IC50 [4]: 76.4 nM
10 | O=C1CCC(N2C(=O)c3ccc(OCCCCCCCCCCCC(=O)N4CCN(Cc5cccc(Nc6ncc7ccn(CCCNC(=O)C8CCC8)c7n6)c5)CC4)cc3C2=O)C(=O)N1 (stereo unspecified) | inactive | –
11 | CC(=O)N1CCN(Cc2cccc(Nc3ncc4ccn(CCCNC(=O)C5CCC5)c4n3)c2)CC1 | – | IC50 [4]: 228 nM; inhibition (MDCK): inactive
12 | COc1ccc(C(=O)/C=C/C(=O)N2CCN(Cc3cccc(Nc4ncc5ccn(CCCNC(=O)C6CCC6)c5n4)c3)CC2)cc1 | – | Activity [1]: Active; Activity [2]: Active
13 | COc1ccc(C(=O)/C(C#N)=C/C(=O)N2CCN(Cc3cccc(Nc4ncc5ccn(CCCNC(=O)C6CCC6)c5n4)c3)CC2)cc1 | – | Activity [1]: inactive; Activity [2]: inactive
14 | O=C1CCC(N2C(=O)c3cccc(NCCCCCC(=O)N4CCN(Cc5cccc(Nc6ncc7ccn(CCCNC(=O)C8CCC8)c7n6)c5)CC4)c3C2=O)C(=O)N1 (stereo unspecified) | inactive | –
15 | Cc1ncsc1-c1ccc(CNC(=O)[C@H]2C[C@H](O)CN2C(=O)[C@@H](NC(=O)COCC(=O)N2CCN(Cc3cccc(Nc4ncc5ccn(CCCNC(=O)C6CCC6)c5n4)c3)CC2)C(C)(C)C)cc1 | inactive | –
16 | Cc1ncsc1-c1ccc(CNC(=O)[C@@H]2C[C@@H](O)CN2C(=O)[C@H](NC(=O)CCCCCCCCC(=O)N2CCN(Cc3cccc(Nc4ncc5ccn(CCCNC(=O)C6CCC6)c5n4)c3)CC2)C(C)(C)C)cc1 | inactive | –
17 | O=C1CCC(N2C(=O)c3ccc(OCCCCCCCC(=O)N4CCN(Cc5cccc(Nc6ncc7ccn(CCCNC(=O)C8CCC8)c7n6)c5)CC4)cc3C2=O)C(=O)N1 (stereo unspecified) | inactive | –
18 | COc1ccc(C(=O)/C=C(\C#N)C(=O)N2CCN(Cc3cccc(Nc4ncc5ccn(CCCNC(=O)C6CCC6)c5n4)c3)CC2)cc1 | – | Activity [1]: inactive; Activity [2]: inactive
19 | Cc1ncsc1-c1ccc(CNC(=O)[C@H]2C[C@H](O)CN2C(=O)[C@@H](NC(=O)COCCOCCOCC(=O)N2CCN(Cc3cccc(Nc4ncc5ccn(CCCNC(=O)C6CCC6)c5n4)c3)CC2)C(C)(C)C)cc1 | inactive | –
20 | Cc1ncsc1-c1ccc(CNC(=O)[C@@H]2C[C@@H](O)CN2C(=O)[C@H](NC(=O)CCCCCCCCCCC(=O)N2CCN(Cc3cccc(Nc4ncc5ccn(CCCNC(=O)C6CCC6)c5n4)c3)CC2)C(C)(C)C)cc1 | inactive | –
21 | O=C1CCC(N2C(=O)c3ccc(OCCCCCCCCCC(=O)N4CCN(Cc5cccc(Nc6ncc7ccn(CCCNC(=O)C8CCC8)c7n6)c5)CC4)cc3C2=O)C(=O)N1 (stereo unspecified) | inactive | –
22 | Cc1ncsc1-c1ccc(CNC(=O)[C@@H]2C[C@@H](O)CN2C(=O)[C@H](NC(=O)CCCCCCC(=O)N2CCN(Cc3cccc(Nc4ncc5ccn(CCCNC(=O)C6CCC6)c5n4)c3)CC2)C(C)(C)C)cc1 | inactive | –
23 | O=C1CCC(N2C(=O)c3ccc(OCCCCCC(=O)N4CCN(Cc5cccc(Nc6ncc7ccn(CCCNC(=O)C8CCC8)c7n6)c5)CC4)cc3C2=O)C(=O)N1 (stereo unspecified) | Active; Compound Exhibited Only Weak Degradation Compared To Control 3I | –
24 | COc1ccc(C(=O)/C=C/C(=O)N2CCN(Cc3ccc(Nc4ncc5ccn(CCCNC(=O)C6CCC6)c5n4)cc3)CC2)cc1 | – | Activity [1]: Active; Activity [2]: Active
